Assay results: patent publication US7465798B2, “Methods and compositions for selectin inhibition” (Wyeth, priority 2003, dated 2008)

Molecular target: T1, human P-selectin (Homo sapiens, UniProt P16109)
T1 construct: truncated form of human P-selectin comprised of the lectin and EGF domains (P-LE)
T1 sequence (P16109 42-198): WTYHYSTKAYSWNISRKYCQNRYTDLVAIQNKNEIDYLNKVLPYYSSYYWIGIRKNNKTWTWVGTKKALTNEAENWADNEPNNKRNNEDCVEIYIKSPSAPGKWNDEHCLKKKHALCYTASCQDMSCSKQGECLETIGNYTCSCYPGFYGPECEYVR
Assay: Biacore inhibition of P-selectin binding to PSGL-1 (P-LE to immobilized SGP-3)
Details: at 1 mM
Protocol: Compounds of the invention can be assayed for selectin inhibitory activity using any of the procedures known in the art. One convenient procedure is the determination of IC50 values for inhibition of P-selectin binding to P-selectin glycoprotein ligand-1 (PSGL-1) using Biacore.
The Biacore 3000 is an instrument that uses surface plasmon resonance to detect binding of a solution phase analyte to an immobilized ligand on a sensor chip surface. The analyte sample is injected under flow using a microfluidic system. Binding of analyte to ligand causes a change in the angle of refracted light at the surface of the sensor chip, measured by the Biacore instrument in resonance units (RUs).
SGP-3 is a purified sulfoglycopeptide form of human PSGL-1 that contains the P-selectin binding determinants (See Somers et al., 2000, Cell 103, 467-479). SGP-3 was biotinylated via amine chemistry at a unique C-terminal lysine residue and immobilized on streptavidin-coated SA sensor chip. […]
The Biacore assay measures the signal in RU produced by binding of P-LE to SGP-3 in the presence and absence of inhibitors. Percent inhibition of binding is calculated by dividing the inhibited signal by the uninhibited signal subtracting this value from one then multiplying by one hundred. […] The data from this titration are plotted, RU values vs. concentration, and the IC50 is determined by extrapolation from the plot. […]

- percent inhibition of binding (positive control): 50%
SMILES: CC1(C)[C@@H](O[C@H]2O[C@H](C(=O)O)[C@@H](O)[C@H](O)[C@H]2O[C@@H]2O[C@H](C(=O)O)[C@@H](O)[C@H](O)[C@H]2O)CC[C@]2(C)[C@H]3C(=O)C=C4[C@@H]5C[C@@](C)(C(=O)O)CC[C@]5(C)CC[C@@]4(C)[C@]3(C)CC[C@@H]12 [Glycerrhizzin]
